Experimental data taken from patent publication US20060058227A1, “Hedgehog-related prophylaxis, therapy and diagnosis of gi tract carcinogenesis” (Academisch Ziekenhulis bij de Universiteit van Amsterdam, priority 2002, published 2006).

Tests used:
Hh signalling = experiment: Cyclopamine treatment of rats: Western blots of putative Hedgehog regulated proteins in colonic homogenates; assay type: in vivo; settings: adult rat colon homogenate, Western blot
Description: (§1) The distal half of the rat colon was dissected along the longitudinal axis and one half was homogenised and processed for Western blotting as described below. Murine stomach and small intestine were homogenised in lysis buffer (300 mmol/L NaCl, 30 mmol/L Tris, 2 mmol/L MgCl2, 2 mmol/L CaCl2, 1% Triton X-100, pH 7.4, supplemented with 1 tablet of protease inhibitor [Roche] per 50 ml). Protein concentration was measured using the Bradford method. Lysates were diluted 1:3 in protein sample buffer (125 mmol/L Tris/HCl, pH 6.8; 4% sodium dodecyl sulfate; 2% β-mercaptoethanol; 20% glycerol, 1 mg bromophenol blue), and 100-200 μof homogenate was loaded per lane on a sodium dodecyl sulfate-pol-yacrylamide gel electrophoresis gel. After protein separation, the proteins were blotted on to a PVDF membrane (Millipore, Bedford, Mass.). Membranes were blocked with 2% protifar (Nutricia, Zoetermeer, The Netherlands) in phosphate-buffered saline (PBS), supplemented with 0.1% Tween-20 for 1 hour at room temperature. After a brief wash in washing buffer (0.2% protifar; 0.1% Tween-20), membranes were incubated overnight at 4° C. with antibody diluted in washing buffer at the indicated concentration. The next day, membranes were washed 3 times for 5 minutes each and subsequently incubated with a secondary horseradish peroxidase tHRP)-conjugated antibody in a 1:2000 dilution. After enhanced chemoluminescence using Lumilight^+ substrate (Roche, Mannheim, Germany), antibody binding was visualised using a Lumi-Imager (Boehringer Mannheim, Mannheim, Germany).
(§2) In addition to the mice described above, 8-week-old female Wistar rats (n=7) were treated with daily intraperitoneal injections of 1 mg/kg of the Hedgehog inhibitor cyclopamine complexed with 2-hydroxypropyl-β-cyclodextrin (HBC; Sigma) as described (van den Brink et al., 2001). Control rats (n=7) received solvent only. After 14 days, rats were given a single intraperitoneal injection of 150 mg/kg BrdU one hour before being killed.
(§3) The distal half of the rat colon was dissected along the longitudinal axis and one half was homogenised and processed for Western blotting as described (van den Brink et al., 2001). To study Shh expression in the human GI tract we used specimens from the archives of the department of pathology of the Academic Medical Center and the Department of Pathology of the Massachusetts General Hospital and Brigham and Women's Hospital. We examined tissue with normal histology of at least 6 different patients to investigate each site along the normal GI tract for Shh expression. Other specimens included: tissue from 16 different patients with intestinal metaplasia of the stomach, 13 resection specimens of Meckel's diverticulum and 6 resection specimens of patients with Barrett's esophagus.

[1] = system: colonic epithelial cell differentiation; experiment: Cyclopamine treatment of rats: markers of colonic epithelial differentiation (Western blot, H&E, immunohistochemistry); assay type: in vivo, rat; settings: for carbonic anhydrase (CA) IV expression in enterocytes / intestinal trefoil factor expression in the enterocytes / Villin distribution in enterocytes: rat colon; for carbonic anhydrase (CA) IV expression in enterocytes: CA IV immunohistochemistry, cyclopamine treated vs control (FIG. 11G,H); for intestinal trefoil factor expression in the enterocytes: ITF immunohistochemistry, cyclopamine treated vs control (FIG. 11I-L); for Villin distribution in enterocytes: Villin immunohistochemistry, cyclopamine treated vs control (FIG. 11E,F); for enterocyte maturation / terminal differentiation of enterocytes in the colon: H&E and immunohistochemistry
Description: (§4) Formalin fixed paraffin embedded human biopsy and resection specimens of uninflamed colonic mucosa, sporadic adenomas, sporadic carcinomas and adenomas from patients with FAP were obtained from the archives of the pathology department of the Academic Medical Center following institutional standards for human subject research. Immunohistochemistry was performed on 4μ sections using a three-step diaminobenzidine (DAB) detection method with antigen retrieval as described in detail previously (van den Brink et al., 2000). For BrdU visualisation, sections were incubated in 2N HCl at 37° C. for 60 minutes after deparaffinization and then washed in boric acid pH 8.5. Sections were counterstained with Mayer's hematoxylin, except when stained for HNF3β, engrailed-1 or β-catenin to allow optimal visualisation of nuclear staining. BrdU positive nuclei were scored as described (van den Brink et al., 2001).
as §1, §2, §3

[2] = system: precursor cell proliferation in the adult colon; experiment: Cyclopamine treatment of rats: markers of proliferation in the adult colon (Western blot, BrdU labelling); assay type: in vivo, rat
Description: as §4, §1
as §2, with “After 14 days, rats were given a single intraperitoneal injection of 150 mg/kg BrdU one hour before being killed.” left out

HT-29 cells = experiment: Butyrate induced differentiation of HT-29 cells, with or without cyclopamine (Western blot); assay type: cell-based; settings: HT-29 cultures, 2 μ/ml cyclopamine plus butyrate, 24 hours, Western blot (FIGS. 13a,b)
Description: as §1
HT 29 colon cancer cell lines were cultured according to routine procedures in the presence of 10% fetal calf serum (GIBCO). Recombinant Shh (R&D systems) was used at the indicated concentrations; Butyrate (Sigma) was used at a 5 mM concentration.

What does the source list for `CC1=C2C[C@H]3[C@@H](CC=C4C[C@@H](O)CC[C@@]43C)[C@@H]2CC[C@]12O[C@@H]1C[C@H](C)CN[C@H]1[C@H]2C` [cyclopamine]?
levels of BMP4 (Hh signalling; cyclopamine 1 mg/kg i.p. daily for 14 days vs solvent controls (FIG. 3, P=0.0001)): markedly induced; HNF3β protein level (Hh signalling; cyclopamine 1 mg/kg i.p. daily for 14 days vs solvent controls (FIG. 3, P=0.001)): dramatically upregulated; engrailed-1 protein level (Hh signalling; cyclopamine 1 mg/kg i.p. daily for 14 days vs solvent controls (FIG. 3, P=0.002)): dramatically upregulated; GATA-6 protein level (Hh signalling; cyclopamine 1 mg/kg i.p. daily for 14 days vs solvent controls (FIG. 3, P=0.005)): significantly downregulated; Ihh expression under Hh inhibition (Hh signalling; cyclopamine 1 mg/kg i.p. daily for 14 days vs solvent controls (FIG. 3, P=0.08)): not necessary for maintenance of its own expression; expression levels of BMP-2 (Hh signalling; cyclopamine 1 mg/kg i.p. daily for 14 days vs solvent controls (FIG. 3, P=0.25)): no effect; Intestinal trefoil factor (ITF/TFF3) expression, goblet cell lineage marker ([1]; adult rat colon homogenate, Western blot, cyclopamine 1 mg/kg i.p. daily for 14 days (FIG. 4, P=0.008)): strong induction; expression of Villin, marker of enterocyte differentiation ([1]; adult rat colon homogenate, Western blot, cyclopamine 1 mg/kg i.p. daily for 14 days (FIG. 4, P=0.02)): reduced; carbonic anhydrase (CA) IV expression in enterocytes [1]: loss; carbonic anhydrase (CA) IV expression in enterocytes ([1]; listed as Cyclopamine): Loss; intestinal trefoil factor expression in the enterocytes [1]: induction; intestinal trefoil factor expression in the enterocytes ([1]; listed as Cyclopamine): strong immunoreactivity; Villin distribution in enterocytes [1]: villin-redistribution; Villin distribution in enterocytes ([1]; listed as Cyclopamine): apical staining is diminished and cytoplasmic staining enhanced; enterocyte maturation / terminal differentiation of enterocytes in the colon ([1]; rat distal colon, cyclopamine treated vs control (FIG. 11)): inhibited; enterocyte maturation / terminal differentiation of enterocytes in the colon ([1]; rat distal colon, cyclopamine treated vs control (FIG. 11), listed as Cyclopamine): disturbs; histoarchitecture of the colon ([1]; rat distal colon, H&E, cyclopamine treated vs control (FIG. 11)): dramatic changes; expression of PCNA ([2]; adult rat colon homogenate, Western blot, cyclopamine 1 mg/kg i.p. daily for 14 days (FIG. 4, P<0.0001)): increased; expression of cyclin D1 ([2]; adult rat colon homogenate, Western blot, cyclopamine 1 mg/kg i.p. daily for 14 days (FIG. 4, P=0.01)): increased; mitogenesis (PCNA, cyclin D1, BrdU labelled epithelial precursor cells) ([2]; adult rat colon, cyclopamine treated vs control (FIG. 12)): enhanced; incorporation of 5-bromo-2′-deoxyuridine (BrdU labelled cells per crypt) ([2]; adult rat colon, cyclopamine 1 mg/kg i.p. daily for 14 days, BrdU 150 mg/kg one hour before killing (FIG. 4, P=0.036)): increased; butyrate mediated induction of E-cadherin (HT-29 cells): significantly reduced; butyrate mediated induction of Villin (HT-29 cells): significantly reduced; butyrate mediated induction of cip-1 (HT-29 cells): significantly reduced
